For the test, the system named is M. tuberculosis H37Rv growth inhibition. Description: Mycobacterium tuberculosis H37Rv growth inhibition, putative kinase inhibitor library, confirmatory dose response (AID 2842).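 Also: bacteria incubated one week before Alamar blue readout.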

Values after ≈ are worked out from the molar mass of the structure shown. Where only a bound is given, the exact number is not on record here.

For `COc1cc2ccccc2cc1C(=O)Nc1nccs1`, the IC90 was 30.2 µg/mL (≈ 106 µM).

Regarding `CC1=NC2C=CC(Cl)=CC2C(c2ccccc2)=C1C(=O)/C=C/c1nc2ccccc2[nH]1` (stereo not given), the IC90 is 0.73 µg/mL (≈ 1.71 µM). With `Cc1cccc2sc(NNC(=O)c3nc4ccccc4s3)nc12`, the IC90 was 3.36 µg/mL (≈ 9.87 µM).

Consider `CCOC(CNc1ncnc2c1cnn2-c1ccc(C)c(C)c1)OCC`, for which the IC90 is 21.8 µg/mL (≈ 61.4 µM).

As to `COc1ccc(C)c2sc(NNC(=O)c3nc4ccccc4s3)nc12`, the IC90 is 38 µg/mL (≈ 103 µM). For `COc1cccc2sc(N(CCCn3ccnc3)C(=O)c3ccc4c(c3)OCCO4)nc12`, the IC90 is 6.56 µg/mL (≈ 14.6 µM). In the case of `CCCC(=O)Nc1nnc(-c2ccccc2)o1` it was 22 µg/mL (≈ 95.2 µM); in that of `COc1cccc(C(=O)N(CCCn2ccnc2)c2nc3ccc(F)cc3s2)c1OC`, 6.75 µg/mL (≈ 15.3 µM); in that of `O=C(Nc1nnc(-c2cc(Cl)ccc2Cl)o1)c1cccc(Cl)c1`, 31.7 µg/mL (≈ 86.1 µM). With `COc1ccccc1-c1nnc(NC(=O)c2ccc(-c3ccccc3)cc2)o1`, the IC90 is 1.48 µg/mL (≈ 3.98 µM). With `CCc1cccc2sc(N(CCCn3ccnc3)C(=O)c3cccs3)nc12`, the IC90 was 0.34 µg/mL (≈ 0.857 µM). On to `Cc1ccc(Nc2nc(Nc3cccc(F)c3)nc(N3CCOCC3)n2)cc1C`, for which the concentration for an effect of 90% (IC90) was 13.5 µg/mL (≈ 34.2 µM). In the case of `COc1ccccc1C(=O)Nc1nnc(-c2cc(C)ccc2C)o1`, the 90% effect concentration (IC90) was 1.92 µg/mL (≈ 5.94 µM). `CSc1cccc2sc(Nc3cccc(C)c3)nc12`: the IC90 is 12.2 µg/mL (≈ 42.7 µM).

Regarding `COc1ccc(C)c2sc(N(CCCn3ccnc3)C(=O)c3ccc(Cl)s3)nc12`, the IC90 was 2.69 µg/mL (≈ 6.02 µM). `COc1ccc(-c2nnc(NC(=O)c3ccc(Cl)s3)o2)cc1`: the IC90 was 0.94 µg/mL (≈ 2.8 µM).

Regarding `COc1ccc(Cn2cc3c(-c4ccccc4)nnc-3c3cc(OC)c(OC)cc32)cc1`, the IC90 is 6.64 µg/mL (≈ 15.6 µM). Turning to `OCCN1CCN(c2ncnc3c2cnn3-c2ccc(Cl)c(Cl)c2)CC1`, the IC90 was 14.9 µg/mL (≈ 38 µM).

As for `CCN1C(=O)CCc2cc(NS(=O)(=O)c3ccc(OCC(C)C)cc3)ccc21`, the IC90 was 18.3 µg/mL (≈ 45.5 µM).

Regarding `O=C(Nc1nnc(-c2cccs2)o1)C1=COCCO1`, the IC90 was 6.18 µg/mL (≈ 22.1 µM).

`COc1cccc(-c2nnc(NC(=O)/C=C/c3cccs3)o2)c1`: the IC90 is 3.55 µg/mL (≈ 10.8 µM). With `COc1cc2c3nnc(-c4ccc(C)c(C)c4)c-3cn(Cc3ccccc3)c2cc1OC`, the IC90 was 7.35 µg/mL (≈ 17.4 µM). `Cc1ccc2sc(N(CCN(C)C)C(=O)c3cccc4ccccc34)nc2c1C`: the IC90 was 11.8 µg/mL (≈ 29.2 µM). Consider `Cc1c(Cc2ccc(Cl)cc2)c(NCCCN(C)C)n2c(nc3ccccc32)c1C#N`, for which the IC90 was 2.21 µg/mL (≈ 5.12 µM).

On to `Cc1c(Cl)ccc2sc(N(CCCn3ccnc3)C(=O)c3ccco3)nc12`, for which the IC90 was 0.23 µg/mL (≈ 0.574 µM). With `Clc1cccc(Nc2ccc(NCc3ccccc3)nn2)c1`, the 90% effect concentration (IC90) was 6.71 µg/mL (≈ 21.6 µM).

With `O=C(CSc1nnc2ccc(-c3cccc([N+](=O)[O-])c3)nn12)Nc1cccc(C(F)(F)F)c1`, the IC90 is 3.34 µg/mL (≈ 7.04 µM). Regarding `O=C(Nc1nnc(-c2cc(Cl)ccc2Cl)o1)c1ccc(Cl)cc1Cl`, the IC90 was 0.74 µg/mL (≈ 1.84 µM).

In the case of `Cc1ccc(C)c(-c2nnc(NC(=O)Cc3cccc4ccccc34)o2)c1`, the IC90 is 6.3 µg/mL (≈ 17.6 µM).

Turning to `COc1ccc(-c2nnc(NC(=O)C3CC3)o2)cc1`, the 90% effect concentration (IC90) was 1.06 µg/mL (≈ 4.09 µM). The value for `O=[n+]1c2ccccc2n([O-])c2ccccc21` was 3.52 µg/mL (≈ 16.6 µM); that for `CCN1C(=O)c2cccc3c(NC(=O)c4ccc(Cl)s4)ccc1c23` was 8.65 µg/mL (≈ 24.2 µM); that for `CC(C)c1cc(-c2nc(-c3ccccc3)no2)n[nH]1` was 12.7 µg/mL (≈ 49.9 µM). The value for `COc1ccc(OCc2nc(C#N)c(NCc3ccc(C)cc3)o2)cc1` was 12.1 µg/mL (≈ 34.7 µM).

In the case of `CCN1CCc2c(sc(NC(=O)c3ccc([N+](=O)[O-])o3)c2C(N)=O)C1`, the IC90 was 6.91 µg/mL (≈ 19 µM). On to `O=C(Nc1nc2c(s1)CCc1ccccc1-2)c1cccc(Cl)c1`, for which the IC90 is 12.4 µg/mL (≈ 36.5 µM). As for `O=C(Nc1nnc(-c2ccccc2)o1)c1nc2ccccc2s1`, the IC90 was 5.84 µg/mL (≈ 18.1 µM).

Take `COc1ccc(Nc2nc(Nc3ccc(C)c(C)c3)nc3nccnc23)cc1`: the IC90 is 3.93 µg/mL (≈ 10.6 µM). Turning to `Cc1ccc(-c2nnc(NC(=O)c3ccc(F)cc3)o2)c(C)c1`, the IC90 is 26.3 µg/mL (≈ 84.5 µM).

For `CC(=O)N1CCc2c(sc(NC(=O)C(C)C)c2-c2nc3ccccc3s2)C1`, the IC90 was 13.5 µg/mL (≈ 33.7 µM).

Take `COc1ccc2c(c1)c1nnc(-c3ccc(C)cc3)c-1cn2Cc1ccccc1OC`: the IC90 is 4.23 µg/mL (≈ 10.3 µM).

With `O=C(N=Nc1c(O)[nH]c2ccccc12)c1cc(-c2cccc(OCc3ccccc3)c2)n[nH]1`, the IC90 is 20.2 µg/mL (≈ 46.2 µM).

`O=C(Nc1nnc(-c2ccc(F)cc2)o1)c1sc2ccccc2c1Cl`: the IC90 is 9.54 µg/mL (≈ 25.5 µM).

On to `COc1cccc(-c2nnc(NC(=O)c3cccc(F)c3)o2)c1`, for which the IC90 is below 0.2 µg/mL. `CS(=O)(=O)Nc1cccc(C2=NN(c3nc(-c4ccccc4)c4cc(Cl)ccc4n3)C(c3ccccc3F)C2)c1` (stereo not given): the IC90 was 6.67 µg/mL (≈ 11.7 µM).

Regarding `COc1ccc(-c2nnc(NC(=O)c3cccc(C)c3)o2)cc1`, the IC90 was 87.7 µg/mL (≈ 283 µM). `Cc1ccc(C(=O)Nc2sc3c(c2C(N)=O)CCN(C)C3)cc1C`: the IC90 was 18.8 µg/mL (≈ 54.7 µM). Regarding `Cc1cccc(C(=O)Nc2nnc(-c3ccc(C)cc3C)o2)c1`, the IC90 is 9.06 µg/mL (≈ 29.5 µM).

As to `Cc1ccc(NC(=O)CC2C(=O)Nc3ccccc3N2C(=O)c2ccc(Br)cc2)cc1C` (stereo not given), the 90% effect concentration (IC90) was 2.24 µg/mL (≈ 4.55 µM). With `O=C(Nc1nnc(-c2ccc(Cl)cc2)o1)C1CCCCC1`, the IC90 was 5.6 µg/mL (≈ 18.3 µM).

For `CC1CCCN(c2nc3c(c(=O)[nH]c(=O)n3C)n2CCCSc2nc3ccccc3s2)C1` (stereo not given), the IC90 was 16.6 µg/mL (≈ 35.3 µM). As for `O=C(NNc1nc2c(F)cccc2s1)c1cc2ccccc2oc1=O`, the IC90 is 8.19 µg/mL (≈ 23 µM). As for `Cc1ccc(C)c(-c2nnc(NC(=O)c3ccc([N+](=O)[O-])s3)o2)c1`, the IC90 was 3.09 µg/mL (≈ 8.97 µM). Take `CC(=O)c1ccc(C(=O)Nc2nnc(-c3cc(Cl)ccc3Cl)o2)cc1`: the IC90 is 94.4 µg/mL (≈ 251 µM). Consider `CCc1cccc(OCC(O)Cn2c(NCc3ccccc3)nc3c2c(=O)[nH]c(=O)n3C)c1` (stereo not given), for which the concentration for an effect of 90% (IC90) is 22.1 µg/mL (≈ 49.1 µM).

On to `CC(=O)N1CCc2c(sc(NC(=O)c3ccc(-c4ccccc4)cc3)c2C(N)=O)C1`, for which the IC90 is 20.4 µg/mL (≈ 48.7 µM). As for `CC(=O)N1CCc2c(sc(NC(=O)c3ccccc3Oc3ccccc3)c2C(N)=O)C1`, the IC90 was 18.3 µg/mL (≈ 42 µM).

Turning to `O=C(NCCSc1c(-c2ccccc2)[nH]c2ccccc12)c1cc2ccccc2oc1=O`, the IC90 is 2.71 µg/mL (≈ 6.15 µM). For the compound `Cc1ccc(C)c(-c2nnc(NC(=O)/C=C/c3cccs3)o2)c1`, the IC90 was 54.5 µg/mL (≈ 168 µM). For `CCC(=O)Nc1nnc(-c2cccs2)o1`, the IC90 is 17.1 µg/mL (≈ 76.8 µM). `CN(C)S(=O)(=O)c1ccc(C(=O)Nc2nnc(-c3ccc(Br)cc3)o2)cc1`: the IC90 was 6.69 µg/mL (≈ 14.8 µM). With `CCc1ccc(Nc2ncnc3c2cnn3-c2ccc(C)cc2C)cc1`, the concentration for an effect of 90% (IC90) is 6.47 µg/mL (≈ 18.8 µM). Regarding `Cc1ccc(-c2nnc(NC(=O)c3cc4ccccc4oc3=O)o2)c(C)c1`, the IC90 was 1.36 µg/mL (≈ 3.76 µM). The value for `COC(=O)c1ccc(C(=O)NNc2nc3ccc(Cl)cc3s2)cc1` was 28.9 µg/mL (≈ 79.8 µM); that for `Cc1nnsc1C(=O)Nc1ccc([N+](=O)[O-])cc1C(F)(F)F` was 28.1 µg/mL (≈ 84.5 µM); that for `COc1ccc2nc(Nc3sc4c(c3C(N)=O)CCC(C)C4)sc2c1` (stereo not given) was 27.8 µg/mL (≈ 74.5 µM). On to `O=C(Nc1nnc(-c2ccc(Cl)cc2)o1)c1cccc(C(F)(F)F)c1`, for which the concentration for an effect of 90% (IC90) was 2.99 µg/mL (≈ 8.13 µM). In the case of `COc1cc(C(=O)Nc2nnc(-c3ccc4c(c3)CCCC4)o2)cc(OC)c1OC` it was 44.2 µg/mL (≈ 108 µM). Turning to `Cc1ccc(C)c(-c2nnc(NC(=O)c3ccc([N+](=O)[O-])o3)o2)c1`, the IC90 was 1.29 µg/mL (≈ 3.93 µM).

As to `CC1CN(c2ncnc3c2c(-c2ccccc2)cn3-c2ccc(F)cc2)CC(C)O1` (stereo not given), the IC90 was 42.4 µg/mL (≈ 105 µM).
